This note sets out measurements from patent US10905738B2, “Synthetic peptides, prodrugs, pharmaceutical compositions and uses” (Biozeus Desenvolvimento De Produtos Biofarmacêuticos, priority 2018, dated 2021).

In test [1] the test system is smooth muscle of tracheal rings. Kind of test: spasmodic contraction of tracheal rings ex vivo (histamine-induced). On the set-up: species or system Dunkin-Hartley guinea pigs. The note with it: for Effectiveness (Emax) (%): relaxation of tracheal rings contracted by histamine (50 μM); for Effectiveness (Emax) (%) / Potency (pEC50) Molar: mean±SEM; for Potency (pEC50) Molar: tracheal rings contracted by histamine (50 μM), peptides 0.01 to 10 μM; for relaxing effect on airway (tracheal ring) smooth muscle, in words: histamine-induced contraction ex vivo. The procedure: The magnitude of the relaxing effect of the peptides was evaluated by means of a model of spasmodic contraction of tracheal rings ex vivo, largely employed to test new bronchodilating agents (see CULLUM, V. A., FARMER, J. B., JACK, D., LEVY, G. P. Salbutamol: a new, selective β-adrenoceptive receptor stimulant. British journal of pharmacology, 35(1): 141-151. 1969; KAO, C. H., CHU, Y. H., WANG, H. W. Effects of lidocaine on rat's isolated tracheal smooth muscle. European Archives of Oto-Rhino-Laryngology, 267(5): 817-820. 2010; SORIANO-URSÚA, M. A., VALENCIA-HERNÁNDEZ, I., ARELLANO-MENDOZA, M. G., CORREA-BASURTO, J., TRUJILLO-FERRARA, J. G. Synthesis, pharmacological and in silico evaluation of 1-(4-dihydroxy-3, 5-dioxa-4-borabycyclo [4.4.0] deca-7,9,11-trien-9-yl)-2-(tert-butylamine) ethanol, a compound designed to act as a β2 adrenoceptor agonist. European journal of medicinal chemistry, 44(7): 2840-2846. 2009).
For each test, Dunkin-Hartley guinea pigs (400-500 g) were euthanized in a CO2 atmosphere; subsequently, the trachea was exposed, removed and sectioned in segments of 1 to 3 cartilaginous tracheal rings. Each segment was transferred to an individual organ bath system containing Krebs nutritive solution (NaCl 118 mM; KCl […]; CaCl2) 2.5 mM; MgSO4 1.2 mM; KH2PO4 1.2 mM; NaHCO324 mM; glucose 11 mM) at 37° C., under constant aeration with a carbogenic mixture (95% of O2 and 5% of CO2). In each system, a stem fixed to the base of the container and another connected to an isometric transducer (GRASS FT-03) made up the support of the fragments. A data digitizing system connected to the isometric transducer allowed the recording of tension variations produced by the contraction of the tracheal rings (PowerLab™ 16/30, LabChart, version 8.1, AD Instruments, Australia). The basal tension was adjusted to 1 g, and subsequently, the contractility of the fragments was evaluated by a stimulus with carbachol (2.5 μM). After 1 h at rest, the basal tension was recovered and the tissues were subjected to contraction induced by histamine (50 μM) followed by exposure to increasing concentrations of the treatments (0.01 to 10 μM; n=8) or the comparator PnTx(19).
Table 1 lists the mean±SEM of the potency values, shown as the negative logarithm of the concentration that reduced the voltage to 50% of the maximum Histamine-induced contraction (pEC50), and efficacy (Emax), calculated from at least 8 independent tests using the sigmoid nonlinear regression equation of the software Graph Prism 5.0 (GraphPad Software, La Jolla, Ca, USA).

In test [2] the test system is smooth muscle of pulmonary arteries. Kind of test: relaxation of pulmonary arteries contracted with phenylephrine ex vivo. The arrangement: species or system male Wistar rats. The conditions noted are these: n = 9; for pEC50: pulmonary arteries contracted with phenylephrine, peptides 1 nM-10 μM, mean±SEM; for Effectiveness (Emax) (%): relaxation percentage related to maximum phenylephrine contraction. From the text:
The ex vivo model of pulmonary artery smooth muscle contraction with phenylephrine is very useful to screen candidate compounds for lung diseases that demand vasodilating effects (ALENCAR, A. K., PEREIRA, S. L., MONTAGNOLI, T. L., MAIA, R. C., KUMMERLE, A. E., LANDGRAF, S. S., CARUSO-NEVES, C., FERRAZ, E. B., TESCH, R., NASCIMENTO, J. H., DE SANT'ANNA, C. M., FRAGA, C. A., BARREIRO, E. J., SUDO, R. T., ZAPATA-SUDO, G. Beneficial effects of a novel agonist of the adenosine A2A receptor on monocrotaline-induced pulmonary hypertension in rats. Br J Pharmacol, 169: 953-62. 2013).
Rats were anesthetized with midazolam and ketamine (2 mg/kg and 100 mg/kg, respectively) via intraperitoneal administration. After infusion of a lethal dose of sodium thiopental via intraperitoneal administration (50 mg/kg), the trunk of the pulmonary artery was carefully removed via sternotomy. The pulmonary artery was carefully dissected and the connective tissue removed. The arteries were connected to a force transductor, positioned in vertical chambers filled with Krebs solution, oxygenated and kept at 37° C.
After a stabilization period of 2 hours at a tension of 1.5 grams, the arteries were exposed to increasing doses of phenylephrine (1 nM-10 μM) in order to obtain maximum smooth muscle contraction and then exposed to increasing doses of selected peptides in the concentrations of 1 nM-10 μM each (n=9). The tension generated by the pulmonary artery was evaluated at intervals of 5 minutes for each dose (ALENCAR, A. K., PEREIRA, S. L., MONTAGNOLI, T. L., MAIA, R. C., KUMMERLE, A. E., LANDGRAF, S. S., CARUSO-NEVES, C., FERRAZ, E. B., TESCH, R., NASCIMENTO, J. H., DE SANT'ANNA, C. M., FRAGA, C. A., BARREIRO, E. J., SUDO, R. T., ZAPATA-SUDO, G. Beneficial effects of a novel agonist of the adenosine A2A receptor on monocrotaline-induced pulmonary hypertension in rats. Br J Pharmacol 169: 953-62. 2013; ALENCAR, A. K., PEREIRA, S. L., DA SILVA, F. E., MENDES, L. V., CUNHA VDO, M., LIMA, L. M., MONTAGNOLI, T. L., CARUSO-NEVES, C., FERRAZ, E. B., TESCH, R., NASCIMENTO, J. H., SANT'ANNA, C. M., FRAGA, C. A., BARREIRO, E. J., SUDO, R. T., ZAPATA-SUDO, G. N-acylhydrazone derivative ameliorates monocrotaline-induced pulmonary hypertension through the modulation of adenosine AA2R activity. International Journal of Cardiology, 173(2): 154-62. 2014).
Potency values are shown as the negative logarithm of the concentration that reduced the voltage to 50% of the maximum phenylephrine-induced contraction (pEC50), and they are expressed as mean±SEM. The maximum contraction achieved in a given artery was considered to be 100% of contraction, and the effectiveness (Emax) was expressed as the relaxation percentage related to this maximum value. The results were calculated from at least 3 independent tests using the sigmoid non-linear regression equation, and the statistical analysis of the concentration curve was done by performing a nonlinear fit of the logarithmic of the agonist versus response. All the above calculations were performed on the software Graph Prism 5.0 (GraphPad Software, La Jolla, Calif., USA). Tension analysis was performed on the software LabChart7 (AD Instruments, Sydney, Australia). As a cutoff to determine biological significance, we considered pulmonary artery relaxation values above 30% as biologically relevant, considered those as active and then calculated the Emax values (SUN, C. K., LIN, Y. C., YUEN, C. M., CHUA, S., CHANG, L. T., SHEU, J. J., LEE, F. Y., FU, M., LEU, S., YIP, H. K. Enhanced protection against pulmonary hypertension with sildenafil and endothelial progenitor cell in rats. International journal of cardiology, 162(1): 45-58. 2012; ALENCAR, A. K., PEREIRA, S. L., DA SILVA, F. E., MENDES, L. V., CUNHA VDO, M., LIMA, L. M., MONTAGNOLI, T. L., CARUSO-NEVES, C., FERRAZ, E. B., TESCH, R., NASCIMENTO, J. H., SANT'ANNA, C. M., FRAGA, C. […]

For “IAWYKGGGGGIAWYKGGGGGIAWYK [SEQ ID NO: 30]”, in test [1], the “Effectiveness (Emax) (%)” value is “Inactive” and the “Potency (pEC50) Molar” value is “Inactive”.
Consider “RAYFWIAWYKLANSK [SEQ ID NO: 1, Ac-Arg-Ala-Tyr-Phe-Trp-Ile-Ala-Trp-Tyr-Lys-Leu-Ala-Asn-Ser-Lys-NH2]”, for which, in test [1], the “relaxing effect on airway (tracheal ring) smooth muscle, in words” value (shortened to “relaxing effect on airway”) was “effective”; the “Effectiveness (Emax) (%)” value was 45.7 ± 4.3%; the “Potency (pEC50) Molar” value came out at 7.1 ± 0.4 Molar.
Usually pEC50 stands for the negative decadic logarithm of the EC50, by convention in mol/L. A higher pEC50 goes with a small EC50. Consider “RQYFWIAWY [SEQ ID NO: 20, Ac-Arg-Gln-Tyr-Phe-Trp-Ile-Ala-Trp-Tyr-NH2]”, for which, in test [1], the “Effectiveness (Emax) (%)” value is reported as 37.8 ± 2.9% and the “Potency (pEC50) Molar” value turned out to be 7.1 ± 0.3 Molar. Further, in test [2], the pEC50 is given as 6.1 ± 6.9 and the “Effectiveness (Emax) (%)” value is listed as 6% ± 7.64.
Take “QYFWIAWYKLANS [SEQ ID NO: 17, Ac-Gln-Tyr-Phe-Trp-Ile-Ala-Trp-Tyr-Lys-Leu-Ala-Asn-Ser-NH2]”: in test [1], the “Effectiveness (Emax) (%)” value worked out at 37.1 ± 2.6% and the “Potency (pEC50) Molar” value stood at 6.8 ± 0.3 Molar. Besides, in test [2], the pEC50 came to 7.8 ± 3.0 and the “Effectiveness (Emax) (%)” value was 15% ± 2.6.
Consider “IAWYKRGGGGGRKYWAI [SEQ ID NO: 29, Ac-Ile-Ala-Trp-Tyr-Lys-Arg-Gly-Gly-Gly-Gly-Gly-Arg-Lys-Tyr-Trp-Ala-Ile-NH2]”, for which, in test [1], the “Effectiveness (Emax) (%)” value is listed as “Inactive” and the “Potency (pEC50) Molar” value is “Inactive”.
Turning to “IAWYKGGGGGIAWYK [SEQ ID NO: 28, Ac-Ile-Ala-Trp-Tyr-Lys-Gly-Gly-Gly-Gly-Gly-Ile-Ala-Trp-Tyr-Lys-NH2]”, in test [1], the “Effectiveness (Emax) (%)” value was “Inactive” and the “Potency (pEC50) Molar” value is on record as “Inactive”.
Consider “YFWIAWYKLAN [SEQ ID NO: 18, Ac-Tyr-Phe-Trp-Ile-Ala-Trp-Tyr-Lys-Leu-Ala-Asn-NH2]”, for which, in test [1], the “Effectiveness (Emax) (%)” value came to 38.0 ± 2.3% and the “Potency (pEC50) Molar” value was 7.2 ± 0.3 Molar. Moreover, in test [2], the pEC50 is 6.5 ± 9.3 and the “Effectiveness (Emax) (%)” value is 18% ± 9.12.
On to “WIAWYKL [SEQ ID NO: 23, Ac-Trp-Ile-Ala-Trp-Tyr-Lys-Leu-NH2]”, for which, in test [1], the “Effectiveness (Emax) (%)” value is recorded as 35.5 ± 2.3% and the “Potency (pEC50) Molar” value was 7.5 ± 0.3 Molar. Besides, in test [2], the pEC50 is 6.1 ± 6.2 and the “Effectiveness (Emax) (%)” value is reported as 4% ± 6.07.
With “RQYFWIAWYKLANSA [SEQ ID NO: 2, Ac-Arg-Gln-Tyr-Phe-Trp-Ile-Ala-Trp-Tyr-Lys-Leu-Ala-Asn-Ser-Ala-NH2]”, in test [1], the “relaxing effect on airway” value is “effective”; the “Effectiveness (Emax) (%)” value was 40.4 ± 2.6%; the “Potency (pEC50) Molar” value was 6.9 ± 0.2 Molar.
On to “AQYFWIAWYKLANSK [SEQ ID NO: 4, Ac-Ala-Gln-Tyr-Phe-Trp-Ile-Ala-Trp-Tyr-Lys-Leu-Ala-Asn-Ser-Lys-NH2]”, for which, in test [1], the “relaxing effect on airway” value is given as “effective”; the “Effectiveness (Emax) (%)” value is reported as 38.8 ± 3.5%; the “Potency (pEC50) Molar” value came to 6.8 ± 0.3 Molar.
Regarding “RQYFWIAWYKIASNK [SEQ ID NO: 6, Ac-Arg-Gln-Tyr-Phe-Trp-Ile-Ala-Trp-Tyr-Lys-Ile-Ala-Ser-Asn-Lys-NH2]”, in test [1], the “Effectiveness (Emax) (%)” value turned out to be 25.3 ± 1.7% and the “Potency (pEC50) Molar” value was determined as 7.0 ± 0.3 Molar.
With “RQAFWIAWYKLANSK [SEQ ID NO: 3, Ac-Arg-Gln-Ala-Phe-Trp-Ile-Ala-Trp-Tyr-Lys-Leu-Ala-Asn-Ser-Lys-NH2]”, in test [1], the “relaxing effect on airway” value is given as “effective”; the “Effectiveness (Emax) (%)” value is on record as 36.7 ± 1.9%; the “Potency (pEC50) Molar” value is on record as 6.8 ± 0.2 Molar.
On to “RQYFWIAW [SEQ ID NO: 22, Ac-Arg-Gln-Tyr-Phe-Trp-Ile-Ala-Trp-NH2]”, for which, in test [1], the “Effectiveness (Emax) (%)” value amounted to 35.2 ± 1.8% and the “Potency (pEC50) Molar” value is given as 7.0 ± 0.2 Molar. For the same substance, in test [2], the pEC50 is listed as 5.8 ± 3.1 and the “Effectiveness (Emax) (%)” value is reported as 8% ± 2.83.
